Test results: patent publication US9579358B2, “Compositions for binding to amyloid proteins” (LANCASTER UNIVERSITY BUSINESS ENTERPRISES LIMITED, priority 2011, dated 2017)
Non-standard residues stand in square brackets, D forms with d. Residues, ends and D or L forms follow the SMILES beside them.

What was measured:
Aβ42 [1] = target: T1, Aβ42 (Homo sapiens, UniProt P05067); experiment: Sandwich immunoassay (6E10) for Aβ oligomers; format: biochemical; conditions: 2:1 and 1:1 molar ratios of inhibitor:Aβ42; from 4 and 8 h
T1 construct: Recombinant Aβ42, Ultrapure, was purchased from rPeptide, Bogart, Ga., USA; purchased rPeptide, Bogart, Ga., USA
Procedure: These inhibitors were also tested in an immunoassay technique for the detection of early-stage Aβ oligomers. This assay uses monoclonal anti-Aβ antibody 6E10 to capture Aβ from solution and a biotinylated form of 6E10 as the detection antibody, in a sandwich system. Monomeric Aβ has only a single 6E10 epitope, which is occupied by the capture antibody, and so it cannot subsequently bind to the detection antibody. On the other hand, multimeric Aβ has binding sites available for both capture and detection, giving rise to a strong immunoassay signal. In Aβ aggregation time-course experiments, this assay produces a signal before the ThT method, when only small oligomers are present.
The sandwich immunoassay used follows the method described previously by Taylor et al (28, 30). Briefly, 96-well ELISA plates (Maxisorb) were coated with mouse monoclonal antibody 6E10 diluted 1:1000 in assay buffer (Tris-buffered saline (TBS), pH 7.4, containing 0.05% gamma globulins and 0.005% Tween 20). […] Enhancer solution was added and the plates were read using the time-resolved fluorescence setting for europium on a Wallac Victor 2 plate reader.
This is a more sensitive test than the ThT assay for the detection of early oligomeric forms of Aβ [28]. […] Enhancer solution was added and the plates were read on a Wallac Victor 2 plate reader, using the time-resolved fluorescence setting for europium.

Aβ42 [2] = target: T1, Aβ42; experiment: Atomic force microscopy of incubated Aβ42; format: biochemical; conditions: 1:2 molar ratio RI-OR2-TAT:Aβ42; Aβ42 25 μM, 24 h
Procedure: Aβ42 was incubated at 25 μM in the presence or absence of 12.5 μM RI-OR2-TAT in PBS, pH 7.4, for 24 h. Samples were diluted 1:10 in PBS and then a 2 μl aliquot was deposited onto the surface of freshly cleaned mica and allowed to dry.
Images were obtained in tapping mode using a Multimode™ SPM NanoScope IIIa microscope (Digital Instruments, New York, USA). Silicon cantilever tips measuring 125 μm long, 30 μm wide and with a tip radius <10 nm were used (Budget Sensors, Bulgaria). The resonance frequency was 300 kHz and force constants 40 Nm. All images were first order flattened and edited using WSxM 5.0 Develop 4.3 software, (Nanotech, Madrid, Spain).

T1 sequence (P05067 672-713 limits assumed): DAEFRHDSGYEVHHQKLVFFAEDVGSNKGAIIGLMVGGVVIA

With CC(=O)N[C@H](CCCNC(=N)N)C(=O)NCC(=O)N[C@H](Cc1ccccc1)C(=O)N[C@H](Cc1ccccc1)C(=O)N[C@@H](C(=O)N[C@H](CC(C)C)C(=O)N[C@H](CCCCN)C(=O)NCC(=O)N[C@H](CCCNC(=N)N)C(=O)N[C@H](CCCNC(=N)N)C(=O)N[C@H](CCCNC(=N)N)C(=O)N[C@H](CCCNC(=N)N)C(=O)N[C@H](CCC(N)=O)C(=O)N[C@H](CCCNC(=N)N)C(=O)N[C@H](CCCNC(=N)N)C(=O)N[C@H](CCCCN)C(=O)N[C@H](CCCCN)C(=O)N[C@H](CCCNC(=N)N)C(=O)NCC(=O)N[C@H](Cc1ccc(O)cc1)C(N)=O)C(C)C [RI-OR2-TAT, Ac-rGffvlkGrrrrqrrkkrGy-NH2] (Ac-[dR]G[dF][dF][dV][dL][dK]G[dR][dR][dR][dR][dQ][dR][dR][dK][dK][dR]G[dY]-NH2) the “development of immunoassay signal (oligomer formation)” value (Aβ42 [1]) was “considerably reduced” and the “oligomer formation in AFM images” value (Aβ42 [2]) was “clear inhibition of oligomer formation”.
